Measured values reported in US11662349B2, “Carbohydrate sensors” (Commonwealth Scientific and Industrial Research Organisation, priority 2017, dated 2023).
Values joined by “and” are separate entries in the source; they are usually repeats but may differ in a detail not shown here. Identical values can stand only once.

Key:
[1] = target: LacB1 sensor, GFP^2-BgaR-RLuc8 fusion protein, SEQ ID NO: 15 (BgaR from Clostridium perfringins strain 13, SEQ ID NO: 1) (Clostridium perfringens, UniProt Q8XMB9); test: biochemical; format: binding
[2] = target: LacF1 sensor, His6-CFP-BgaR-YFP fusion protein, SEQ ID NO: 23 (BgaR from Clostridium perfringins strain 13, SEQ ID NO: 1) (Clostridium perfringens, UniProt Q8XMB9); format: binding

Question: `OC[C@H]1OC(O)[C@H](O)[C@@H](O)[C@H]1O` (some centres unmarked) [galactose] was tested. Which “change in BRET^2 ratio” value [1] did it give?
Answer: Its value is 3% and 13%.

Question: Which results are given for `OC[C@H]1O[C@@H](O[C@@H]2[C@@H](CO)OC(O)(CO)[C@H]2O)[C@H](O)[C@@H](O)[C@H]1O` (stereo partly drawn) [lactulose, 4-O-β-D-galactosyl-D-fructose]?
Answer: affinity of LacB1 for lactulose weaker than for lactose [1]: approximately 150 fold; change in BRET^2 ratio [1]: approximately 21%; difference in EC50 between lactose and lactulose [1]: 200 fold; limit of detection (LOD), lactulose [1]: 0.1 mM; limit of detection for lactulose higher than for lactose [1]: 100 fold; EC50 ([1]; EC50 (lactulose)): 2400 ± 200 µM

Question: With `OC[C@H]1OC(O)[C@H](O)[C@@H](O)[C@@H]1O` (some centres unmarked) [glucose] as the molecule, how does the “change in BRET^2 ratio” value [1] read?
Answer: Its value is 9% and 6%.

Question: How did the “RET ratio in the presence of lactose” value [2] turn out when `OC[C@H]1O[C@@H](O[C@H]2[C@H](O)[C@@H](O)C(O)O[C@@H]2CO)[C@H](O)[C@@H](O)[C@H]1O` (stereo partly drawn) [lactose, β-D-galactosyl-(1→4)-D-glucose] was run?
Answer: The value was 1.089±0.004.

Question: What about the “decrease in RET ratio” value [2] of the same molecule?
Answer: Its value is 10%.

Question: And the “RET ratio in the presence of lactose” value [1]?
Answer: The value was 0.800±0.003.

Question: And the “change in BRET^2 ratio” value [1]?
Answer: Its value is “approximately 35%”.

Question: And the “drop in RET ratio” value [1]?
Answer: The value was 27%.

Question: What about the EC50 ([1]; EC50 (lactose)) of the same molecule?
Answer: Its EC50 is 12 µM and 21 µM and 11 to 14 µM and 18 to 23 µM.
